# Reference: ChEMBL document CHEMBL4118274, “Synthesis and biological evaluation of pyridine-linked indanone derivatives: Potential agents for inflammatory bowel disease” (Bioorg Med Chem Lett, 2018)
# Activity calls are given as the source filed them. The rule behind the calls is not given here.
# Assays:
# [1] = molecular target: Tumor necrosis factor (Homo sapiens) (UniProt P01375); experiment: Inhibition of TNFalpha (unknown origin)-induced adhesion of BCECF fluorescence-labeled human U937 cells to human HT-29 cells at 10 uM measured at 3 hrs post TNFalpha stimulation relative to control
# [2] = molecular target: Tumor necrosis factor (Homo sapiens) (UniProt P01375); experiment: Potency index, ratio of test compound activity to 5-aminosalicylate activity for inhibition of TNFalpha (unknown origin)-induced adhesion of BCECF fluorescence-labeled human U937 cells to human HT-29 cells
# Rattus norvegicus [3] = experiment: In vivo of inhibition of TNBS-induced decrease in body weight in TNBS-induced colitis Sprague-Dawley rat model at 25 mg/kg/day, po administered on day of TNBS administration and on four consecutive days measured on day 6; type: functional, organism-based
# Rattus norvegicus [4] = experiment: In vivo of inhibition of TNBS-induced increase in myeloperoxidase level in TNBS-induced colitis Sprague-Dawley rat model colon tissue at 25 mg/kg/day, po administered on day of TNBS administration and on four consecutive days measured on day 6; type: functional, organism-based
# Rattus norvegicus [5] = experiment: In vivo of inhibition of TNBS-induced up-regulation of IL-1beta in TNBS-induced colitis Sprague-Dawley rat model at 25 mg/kg/day, po administered on day of TNBS administration and on four consecutive days measured on day 6 by Western blot method; type: functional, organism-based
# [6] = molecular target: Tumor necrosis factor (Homo sapiens) (UniProt P01375); experiment: Potency index, ratio of 5-aminosalicylate IC50 to test compound IC50 for TNFalpha (unknown origin)-induced adhesion of BCECF fluorescence-labeled human U937 cells to human HT-29
# Rattus norvegicus [7] = experiment: In vivo of inhibition of TNFalpha-induced SNAIL expression in TNBS-induced colitis Sprague-Dawley rat model at 25 mg/kg/day, po administered on day of TNBS administration and on four consecutive days measured on day 6 by Western blot method; type: functional, organism-based
# [8] = molecular target: Tumor necrosis factor (Homo sapiens) (UniProt P01375); experiment: Inhibition of TNFalpha (unknown origin)-induced decrease in E-cadherin expression in human HT-29 cells at 10 uM pretreated with cells for 1 hr followed by TNFalpha induction for 3 hrs by Western blot analysis; type: cell-based
# [9] = molecular target: Tumor necrosis factor (Homo sapiens) (UniProt P01375); experiment: Inhibition of TNFalpha (unknown origin)-induced NFkappaB transcriptional activity in human HT-29 cells at 10 uM pretreated with cells for 1 hr followed by TNFalpha induction for 3 hrs by dual luciferase reporter gene assay; type: cell-based
# [10] = molecular target: Tumor necrosis factor (Homo sapiens) (UniProt P01375); experiment: Inhibition of TNFalpha (unknown origin)-induced MCP-1 expression in human HT-29 cells at 10 uM preincubated with cells for 1 hr followed by TNFalpha induction of 3 hrs by Western blot analysis; type: cell-based
# Rattus norvegicus [11] = experiment: In vivo of inhibition of TNFalpha-induced decrease in E-cadherin expression in TNBS-induced colitis Sprague-Dawley rat model at 25 mg/kg/day, po administered on day of TNBS administration and on four consecutive days measured on day 6 by Western blot method; type: functional, organism-based
# Rattus norvegicus [12] = experiment: In vivo of inhibition of TNFalpha-induced up-regulation of ICAM-1 expression in TNBS-induced colitis Sprague-Dawley rat model at 25 mg/kg/day, po administered on day of TNBS administration and on four consecutive days measured on day 6 by Western blot method; type: functional, organism-based
# [13] = molecular target: Tumor necrosis factor (Homo sapiens) (UniProt P01375); experiment: Inhibition of TNFalpha (unknown origin)-induced ICAM-1 expression in human HT-29 cells at 10 uM preincubated with cells for 1 hr followed by TNFalpha induction of 3 hrs by Western blot analysis; type: cell-based
# [14] = molecular target: Tumor necrosis factor (Homo sapiens) (UniProt P01375); experiment: Inhibition of TNFalpha (unknown origin)-induced SNAIL expression in human HT-29 cells at 10 uM pretreated with cells for 1 hr followed by TNFalpha induction for 3 hrs by Western blot analysis; type: cell-based
# Rattus norvegicus [15] = experiment: In vivo of inhibition of TNBS-induced up-regulation of TNFalpha in TNBS-induced colitis Sprague-Dawley rat model at 25 mg/kg/day, po administered on day of TNBS administration and on four consecutive days measured on day 6 by Western blot method; type: functional, organism-based
# Rattus norvegicus [16] = experiment: In vivo of inhibition of TNBS-induced increase in colon weight in TNBS-induced colitis Sprague-Dawley rat model at 25 mg/kg/day, po administered on day of TNBS administration and on four consecutive days measured on day 6; type: functional, organism-based
# Rattus norvegicus [17] = experiment: In vivo of inhibition of TNFalpha-induced up-regulation of MCP-1 expression in TNBS-induced colitis Sprague-Dawley rat model at 25 mg/kg/day, po administered on day of TNBS administration and on four consecutive days measured on day 6 by Western blot method; type: functional, organism-based
# Rattus norvegicus [18] = experiment: In vivo of inhibition of TNBS-induced increase in myeloperoxidase level in TNBS-induced colitis Sprague-Dawley rat model colon tissue at 300 mg/kg/day, po administered on day of TNBS administration and on four consecutive days measured on day 6; type: functional, organism-based
# Rattus norvegicus [19] = experiment: In vivo of inhibition of TNBS-induced increase in colon weight in TNBS-induced colitis Sprague-Dawley rat model at 300 mg/kg/day, po administered on day of TNBS administration and on four consecutive days measured on day 6; type: functional, organism-based
# Rattus norvegicus [20] = experiment: In vivo of inhibition of TNBS-induced decrease in body weight in TNBS-induced colitis Sprague-Dawley rat model at 300 mg/kg/day, po administered on day of TNBS administration and on four consecutive days measured on day 6; type: functional, organism-based
# [21] = molecular target: Tumor necrosis factor (Homo sapiens) (UniProt P01375); experiment: Inhibition of TNFalpha (unknown origin)-induced adhesion of BCECF fluorescence-labeled human U937 cells to human HT-29 cells at 20 mM measured at 3 hrs post TNFalpha stimulation relative to control
# Tumor necrosis factor (Homo sapiens), sequence (P01375 whole entry): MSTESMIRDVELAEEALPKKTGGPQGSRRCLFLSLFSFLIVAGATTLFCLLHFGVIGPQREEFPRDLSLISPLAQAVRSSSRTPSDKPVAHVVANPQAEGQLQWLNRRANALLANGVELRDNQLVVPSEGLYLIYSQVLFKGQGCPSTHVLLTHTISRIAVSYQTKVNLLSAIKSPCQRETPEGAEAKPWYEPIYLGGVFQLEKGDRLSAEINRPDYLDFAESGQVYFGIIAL
smiles,measurement,setting,value
COc1ccc2c(c1)C(=O)/C(=C/c1ccncc1)C2,inhibition,[1],4.1%
O=C1/C(=C/c2cccnc2)Cc2cccc(O)c21,Ratio,[2],7 to 23
same,inhibition,[1],46.1%
CC(C)Oc1ccc2c(c1)C(=O)/C(=C/c1ccncc1)C2,inhibition,[1],45.7%
O=C1/C(=C/c2ccccn2)Cc2cc(O)ccc21,Ratio,[2],7 to 23
same,inhibition,[1],58.1%
O=C1/C(=C/c2ccncc2)Cc2ccc(O)cc21,inhibition,Rattus norvegicus [3],Active
same,inhibition,Rattus norvegicus [4],Active
same,inhibition,Rattus norvegicus [5],Active
same,Ratio IC50,[6],> 10000
same,inhibition,Rattus norvegicus [7],Active
same,Ratio,[2],7 to 23
same,inhibition,[8],Active
same,inhibition,[9],Active
same,inhibition,[10],Active
same,inhibition,Rattus norvegicus [11],Active
same,inhibition,Rattus norvegicus [12],Active
same,inhibition,[13],Active
same,inhibition,[14],Active
same,inhibition,Rattus norvegicus [15],Active
same,inhibition,Rattus norvegicus [16],Active
same,inhibition,Rattus norvegicus [17],Active
same,inhibition,[1],85.5%
O=C1/C(=C/c2ccccn2)Cc2c(O)cccc21,Ratio,[2],7 to 23
same,inhibition,[1],64.5%
O=C1/C(=C/c2ccncc2)Cc2cccc(O)c21,Ratio,[2],7 to 23
same,inhibition,[8],inactive
same,inhibition,[9],Active
same,inhibition,[1],74.6%
O=C(O)c1cc(/N=N/c2ccc(S(=O)(=O)Nc3ccccn3)cc2)ccc1O,inhibition,Rattus norvegicus [18],Active
same,inhibition,Rattus norvegicus [19],Active
same,inhibition,Rattus norvegicus [20],Active
CC(C)Oc1cccc2c1C/C(=C\c1ccncc1)C2=O,inhibition,[1],60.9%
O=C1/C(=C/c2ccncc2)Cc2c(O)cccc21,inhibition,Rattus norvegicus [3],Active
same,inhibition,Rattus norvegicus [4],Active
same,inhibition,Rattus norvegicus [5],Active
same,inhibition,Rattus norvegicus [7],Active
same,Ratio,[2],7 to 23
same,inhibition,[8],Active
same,inhibition,[9],Active
same,inhibition,[10],Active
same,inhibition,Rattus norvegicus [11],Active
same,inhibition,Rattus norvegicus [12],Active
same,inhibition,[13],Active
same,inhibition,[14],Active
same,inhibition,Rattus norvegicus [15],Active
same,inhibition,Rattus norvegicus [16],Active
same,inhibition,Rattus norvegicus [17],Active
same,inhibition,[1],78%
O=C1/C(=C/c2cccnc2)Cc2cc(O)ccc21,Ratio,[2],7 to 23
same,inhibition,[1],67%
Nc1ccc(O)c(C(=O)O)c1,inhibition,[21],52.1%
O=C1/C(=C/c2cccnc2)Cc2c(O)cccc21,Ratio,[2],7 to 23
same,inhibition,[8],inactive
same,inhibition,[9],Active
same,inhibition,[1],70.8%
CCOc1ccc2c(c1)C(=O)/C(=C/c1ccncc1)C2,inhibition,[1],7.3%
O=C1/C(=C/c2ccccn2)Cc2ccc(O)cc21,Ratio,[2],7 to 23
same,inhibition,[1],54.8%
O=C1/C(=C/c2cccnc2)Cc2ccc(O)cc21,Ratio,[2],7 to 23
same,inhibition,[8],inactive
same,inhibition,[9],Active
same,inhibition,[1],74.7%
O=C1/C(=C/c2ccncc2)Cc2cc(O)ccc21,Ratio,[2],7 to 23
same,inhibition,[1],26.6%
CCOc1cccc2c1C/C(=C\c1ccncc1)C2=O,inhibition,[1],51.2%
COc1cccc2c1C/C(=C\c1ccncc1)C2=O,inhibition,[1],5.9%
O=C1/C(=C/c2ccccn2)Cc2cccc(O)c21,Ratio,[2],7 to 23
same,inhibition,[1],46.2%
